Test results published in US11629335B2, “Methods of improving vector transduction efficiency into T lymphocytes” (CELGENE CORPORATION, priority 2014, dated 2023).

Tests used:
[1] = system: primary human T lymphocytes; experiment: Lentiviral transduction efficiency of primary human T lymphocytes with CAR vector JL28.2, FACS for VEGFR2+ cells; assay type: cell-based; conditions: for transduced cells VEGFR2+: in presence of DD, MOI 1.8; for VEGFR2+ cells: 6 μM BX795 before and concurrently, nine hours total (Pre-treated+Concurrent); for VEGFR2 expression as compared to DD Only Control: day 3 and day 8
Experimental: Lentivirus encoding the vector JL28.2 (VEGFR2-CD28TM-CD28IC-P2A-GFP), which encodes a chimeric antigen receptor composed of VEGFR2 and GFP protein, was added to the activated T lymphocyte culture at a multiplicity of infection (MOI) of 1.8. Fluorescence-activated cell sorting (FACS) was used to determine the proportion of T lymphocytes expressing VEGFR2 as a marker for successfully transduced cells.
Transduced lymphocytes were then analyzed by FACS to determine the proportion of successfully transduced cells.
T lymphocytes were cultured for eight days after transduction, and VEGFR2 expression was monitored at days 3 and 8 post-transduction.
Cells were analyzed by FACS for viability.
Primary human T lymphocytes were cultured as in Section 6.3.1 and analyzed by FACS for expression of VEGFR2.

[2] = system: primary human T lymphocytes; experiment: Viability of primary human T lymphocytes after lentiviral transduction, by FACS; conditions: absence of 2-AP, JL28.2 MOI 3, 50 U/ml IL-2; without DD or PS 84%
Experimental: Primary human T lymphocytes were cultured in RPMI-1640 media supplemented with 10% (v/v) fetal bovine serum (FBS), and activated with anti-CD3/CD28 Dynabeads® at a Dynabead:T lymphocyte ratio of 3:1 for 24 hours. 2-Aminopurine (2-AP) was added to cultures and incubated for 90 minutes at 37 C. DEAE-dextran (DD) or protamine sulfate (PS) were added to the cultures in the presence of 50 U/ml IL-2 and JL28.2 lentiviral vector at an MOI of 3. Cells were analyzed by FACS for viability.

## Nc1ncc2[nH]cnc2n1 [2-AP, 2-Aminopurine]
[1]; 2-AP 2.5 mM, 5 mM or 10 mM, pretreated 90 minutes, then 5 hours with lentivirus, in presence of DD or PS
  transduction efficiency as compared to cells not exposed to 2-AP (Control): increased transduction efficiency

## O=C(NCCCNc1nc(Nc2cccc(NC(=O)N3CCCC3)c2)ncc1I)c1cccs1 [BX795]
[1]; 1 μM BX795 added concurrently with lentivirus for six hours
  transduced cells VEGFR2+: 7.63%
[1]; day 3 post-transduction
  VEGFR2+ cells: 18.4%
[1]; day 8 post-transduction
  VEGFR2+ cells: 10.6%
[1]; 6 μM BX795 both before and during lentiviral transduction
  VEGFR2 expression level relative to DD Only cultures: roughly twice as high
[1]; 6 μM BX795 concurrently with lentiviral transduction for six hours (Concurrent)
  VEGFR2 expression as compared to DD Only Control: no improvement
[1]; 6 μM BX795 for three hours before lentiviral transduction (Pre-treated)
  VEGFR2 expression as compared to DD Only Control: increase
[1]; 10 μM BX795 added concurrently with lentivirus for six hours
  transduced cells VEGFR2+: 10.5%

## protamine sulfate [PS]
[1]; transformation reagent alone, no 2-AP, JL28.2 MOI 3, without DD or PS 4.49%
  cells VEGFR2+: 0.565%
[2]
  viable cells after lentiviral transduction: 84.9%
